Reference: US20200123396A1, “PRODUCTS PRESERVED WITH 5-CHLORO-2-METHYL-4-ISOTHIAZOLIN-3-ONE” (THOR GMBH, priority 2014, published 2020)

Tests used:
[1] = destruction of 2-methylisothiazolin-3-one in an aqueous emulsion paint using sodium thiosulfate; type: physicochemical
Description: A drawback, however, is that according to the method described, the isothiazolinones, and especially the MIT, are not destroyed quantitatively or irreversibly, and so are still always present in the products and derivatives, and may still as before cause problems to persons reacting allergically, and/or may give rise to contact eczemas or aerogenic contact eczemas in persons having a high degree of sensitization.

[2] = tested on: microorganisms introduced via the individual components of the paint; assay: microbiological investigations of the preserved emulsion paint; type: cell-based; settings: 20 ppm of 5-chloro-2-methylisothiazolin-3-one (2-methylisothiazolin-3-one content <1 wt %) in water-based emulsion paint; growth detectable in individual components
Description: Added to a preservative-free styrene-acrylate dispersion were 20 ppm of 5-chloro-2-methylisothiazolin-3-one, having a 2-methylisothiazolin-3-one content of <1 wt %. The styrene-acrylate dispersion thus preserved was then used for producing a water-based emulsion paint. The composition of the paint produced was as follows: • 25.7 wt % water • 0.2 wt % acrylate-based wetting and dispersing agent • 0.2 wt % mineral oil-based defoamer • 2.0 wt % water softener (sodium polyphosphate) • 0.2 wt % ammonia • 4.0 wt % titanium oxide (pigment) • 51.0 wt % calcium carbonate (filler) • 5.0 wt % talc (filler) • 0.4 wt %% cellulose ether • 2.0 wt % organic solvent for lowering the minimum film-forming temperature • 9.0 wt % the styrene-acrylate dispersion preserved with 20 ppm of 5-chloro-2-methylisothiazolin-3-one • 20 ppm 5-chloro-2-methylisothiazolin-3-one, having a 2-methylisothiazolin-3-one content of <1 wt %

[3] = decomposition of 5-chloro-2-methylisothiazolin-3-one in the emulsion paint by cysteine, HPLC; type: physicochemical; settings: after 3 hours, addition of 50 ppm of cysteine based on the emulsion paint
Description: In order, from the emulsion paint, which contained significant quantities of 5-chloro-2-methylisothiazolin-3-one, to produce a paint unobjectionable for allergics in relation to 5-chloro-2-methylisothiazolin-3-one and 2-methylisothiazolin-3-one present therein, to produce, these isothiazolin-3-ones were decomposed by addition of 50 ppm of cysteine, based on the emulsion paint.

Cn1sccc1=O [2-methylisothiazolin-3-one]
destruction of 2-methylisothiazolin-3-one [1]: destroyed neither quantitatively nor irreversibly

Cn1sc(Cl)cc1=O [5-chloro-2-methylisothiazolin-3-one]
microbial growth in the emulsion paint [2]: no microbial growth | detectability of 5-chloro-2-methylisothiazolin-3-one in the emulsion paint by HPLC [3]: no longer detectable
